Source: BindingDB's records for doi:10.1016/j.bmcl.2021.127992 (Kyung Hee University, 2021)

Molecular target: T1, Prostaglandin E synthase (Homo sapiens, UniProt O14684)
T1 sequence (O14684 whole entry): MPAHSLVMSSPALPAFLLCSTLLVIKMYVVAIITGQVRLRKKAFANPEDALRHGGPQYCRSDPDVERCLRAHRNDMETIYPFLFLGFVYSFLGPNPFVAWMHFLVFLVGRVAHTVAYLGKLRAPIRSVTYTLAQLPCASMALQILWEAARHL
Assay: Inhibition of mPGES-1 in human A549 cells assessed as reduction in IL-1beta stimulated […] production

IC50 | Structure (SMILES)
2000 nM | O=C(Oc1ccc(OCc2ccccc2)cc1)N(Cc1ccccc1)S(=O)(=O)c1ccc(Cl)cc1
250 nM | O=C(Oc1ccc(OCc2ccccc2)cc1)N(Nc1ccccc1)S(=O)(=O)c1ccc(Cl)cc1

Structure (SMILES) | IC50
O=C(Nc1ccc(OCCCCc2ccccc2)cc1)N(Cc1ccccc1)S(=O)(=O)c1ccc(Cl)cc1 | 1000 nM
